Structures can show the parent of a compound that is named as a salt.

We go through one compound from patent publication EP0396827A1, “2-Phenylthiobenzylamine dervivatives and acid addition salts thereof” (SPOFA Spojené Podniky Pro Zdravotnickou Vyrobu, priority 1989, dated 1990).

For one data set, the system named is 5-HT re-uptake. Description: ³H-5-HT re-uptake inhibition in rat brain cortex. It counts as biochemical. The conditions noted are these: ³H-5-HT 10 nM, calculated as base, read-out: 5-HT re-uptake IC₅₀. The protocol:
(§1) The reported selective action of compound IA was verified by direct comparison of ³H-5-HT (10 nM) and ³H-noradrenaline (NA, 10 nM) re-uptake in rat brain cortex; again the two sets of values were markedly differentiated in the sense of predominant 5-HT re-uptake inhibition.
(§2) The substances under study were tested in the form of salts administered p.o. The results are conventionally expressed as medium inhibition concentrations IC₅₀ (nM) and effective doses ED (eliciting a first statistically significant response) or medium effective doses ED₅₀ (mg per kg); the concentrations and effective doses are calculated as the corresponding amounts of the base.
(§3) Acute toxicity was tested in mice p.o. and medium lethal dose LD₅₀ is given. Thus, compound IA hydrogen maleate LD₅₀ 232 mg/kg. […] Reserpine hypothermia ED 10, ptosis 25, ulceration 50 mg/kg. Yohimbine, ED₅₀ 54.7 mg/kg.

The nature of data set [1]: antireserpine activity: reserpine hypothermia. The format is in vivo. The conditions noted are these: p.o.; ED eliciting a first statistically significant response; calculated as base. The protocol: (§4) Also, standard pharmacological tests of antireserpine activity (on experimental hypothermia, eyelid ptosis and gastric ulceration) and potentiation of yohimbine toxicity in mice are indicative of pronounced antidepressant properties of compound IA.
as §2, §3

Data set [2] in a line: acute toxicity in mice p.o. The conditions noted are these: mouse, in vivo, po, read-out: LD₅₀. The protocol: as §3
A short description of data set [3]: potentiation of yohimbine toxicity in mice. It counts as in vivo. The conditions noted are these: Mus musculus, po, calculated as base, read-out: Yohimbine, ED₅₀. The protocol:
as §4, §2, §3

The next data set concerns the target T1, DP receptors (Rattus norvegicus, UniProt Q63380).
T1 construct: standard biochemical tests on rat hypothalamus; from tissue; host or cells: rat hypothalamus
Description: inhibition of tritium-labelled desipramine binding in rat hypothalamus. The protocol:
(§5) The above compound was selected as a preferred structure from numerous related new substances on the basis of pharmacological evaluation.
as §2, §3

Data set [4] can be described thus: antireserpine activity: reserpine gastric ulceration. It counts as in vivo. The conditions noted are these: p.o.; ED eliciting a first statistically significant response; calculated as base. Here is the method: as §4, §2, §3
A short description of data set [5]: antireserpine activity: reserpine eyelid ptosis. The conditions noted are these: p.o.; ED eliciting a first statistically significant response; calculated as base. The format is in vivo. Here is the method: as §4, §2, §3
Another data set deals with NA re-uptake. Nature of the data set: ³H-noradrenaline re-uptake inhibition in rat brain cortex. It counts as biochemical. The settings on record: ³H-noradrenaline 10 nM, calculated as base, read-out: NA re-uptake IC₅₀. The protocol:
as §1, §2, §3

Another data set concerns the target T2, IP receptors (Rattus norvegicus, UniProt P31652).
T2 construct: standard biochemical tests on rat hypothalamus; from tissue; host or cells: rat hypothalamus
Nature of the data set: inhibition of tritium-labelled imipramine binding in rat hypothalamus. Here is the method: as §5, §2, §3

T1 sequence (Q63380 1-617): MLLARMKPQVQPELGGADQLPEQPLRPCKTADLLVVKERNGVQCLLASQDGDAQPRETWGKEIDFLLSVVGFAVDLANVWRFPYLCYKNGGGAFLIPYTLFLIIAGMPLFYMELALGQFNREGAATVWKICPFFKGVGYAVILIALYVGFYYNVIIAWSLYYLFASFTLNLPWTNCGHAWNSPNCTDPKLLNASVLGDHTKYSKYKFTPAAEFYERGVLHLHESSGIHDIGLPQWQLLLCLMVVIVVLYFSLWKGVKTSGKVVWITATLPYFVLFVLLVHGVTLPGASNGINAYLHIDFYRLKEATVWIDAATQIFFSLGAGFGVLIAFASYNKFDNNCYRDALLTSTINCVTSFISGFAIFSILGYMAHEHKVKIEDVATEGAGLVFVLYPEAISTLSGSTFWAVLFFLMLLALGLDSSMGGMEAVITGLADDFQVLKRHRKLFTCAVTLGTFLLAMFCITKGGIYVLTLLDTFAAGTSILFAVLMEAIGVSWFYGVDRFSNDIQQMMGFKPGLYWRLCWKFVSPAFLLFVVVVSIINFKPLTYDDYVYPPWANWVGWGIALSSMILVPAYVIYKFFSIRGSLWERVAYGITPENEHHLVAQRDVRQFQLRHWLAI
T2 sequence (P31652 whole entry): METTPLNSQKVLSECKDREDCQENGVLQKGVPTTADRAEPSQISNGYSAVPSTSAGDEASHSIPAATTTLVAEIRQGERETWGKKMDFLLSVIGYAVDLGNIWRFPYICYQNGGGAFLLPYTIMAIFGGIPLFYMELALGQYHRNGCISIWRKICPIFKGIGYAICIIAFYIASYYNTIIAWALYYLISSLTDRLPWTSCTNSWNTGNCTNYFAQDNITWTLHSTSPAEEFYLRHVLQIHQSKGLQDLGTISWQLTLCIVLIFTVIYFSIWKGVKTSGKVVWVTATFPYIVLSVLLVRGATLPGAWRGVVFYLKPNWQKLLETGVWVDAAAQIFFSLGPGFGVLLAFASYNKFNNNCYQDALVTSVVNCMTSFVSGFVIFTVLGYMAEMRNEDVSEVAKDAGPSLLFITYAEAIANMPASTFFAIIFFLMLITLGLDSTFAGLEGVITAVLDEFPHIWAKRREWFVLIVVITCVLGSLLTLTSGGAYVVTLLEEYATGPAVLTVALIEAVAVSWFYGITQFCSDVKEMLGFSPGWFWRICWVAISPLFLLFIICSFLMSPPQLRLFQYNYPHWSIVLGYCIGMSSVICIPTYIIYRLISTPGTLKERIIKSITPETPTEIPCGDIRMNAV

Turning to `CN(C)Cc1ccccc1Sc1cccc(O)c1` [compound IA hydrogen maleate, N,N-Dimethyl-2-(3-hydroxyphenylthio)benzylamine], the IC50 was 0.00058 µM in the data set with 5-HT re-uptake, 12.9 µM on DP receptors, 506 µM with NA re-uptake and 0.00424 µM at IP receptors. For the same compound, in data set [1], the “Reserpine hypothermia ED” value is listed as 10 mg/kg. Also, the LD50 in data set [2] came out at 232 mg/kg. In addition, the ED50 in data set [3] was 54.7 mg/kg. For the same compound, the “Reserpine ulceration ED” value in data set [4] is 50 mg/kg. For the same compound, in data set [5], the “Reserpine ptosis ED” value is listed as 25 mg/kg.
